Columns and labels:
rats [1] = conditions: cited from earlier work
rats [2] = assay: Oral lethal dose (LD50) in rats, from safety data sheets; type: in vivo; conditions: glycerol formal compared with MIBK
From the text: The data for MIBK were obtained from the International Chemical Safety Card published by "Instituto Nacional de Seguridad e Higiene en el Trabajo" (National Institute for Occupational Safety and Hygiene). The data for glycerol formal were obtained from the most recent manufacturer's standard safety data sheet.

[3] = cited from earlier work

Compound	LD50(oral-rats, g/kg) (rats [1])	lethal dose in rats (ingestion) relative to MIBK (rats [2])	Solubility in H2O (g/L) [3]
CC(=O)CC(C)C [MIBK, methylisobutylketone]	2.1 g/kg	–	–
GLYCEROL FORMAL	10 g/kg	five times higher	Miscible in all proportions

Source: patent publication EP2357172B1, “Process for the preparation of pimozide” (Institut Univ. de Ciència i Tecnologia, S.A., priority 2006, dated 2008)
